Experiment [1] concerns the target T1, Insulin-like growth factor 1 receptor (Homo sapiens, UniProt P08069). As to the kind of experiment: Inhibition of IGF1R after 30 mins by chemiluminescence ELISA. On the technique in general: ELISA stands for enzyme-linked immunosorbent assay.
Experiment [2] has as its target T2, Vascular endothelial growth factor receptor 3 (Homo sapiens, UniProt P35916). As to the kind of experiment: Inhibition of VEGFR3 after 30 mins by chemiluminescence ELISA.
Experiment [3] deals with T3, Vascular endothelial growth factor receptor 2 (Homo sapiens, UniProt P35968). As to the kind of experiment: Inhibition of VEGFR2 after 30 mins by chemiluminescence ELISA.
T3 sequence (P35968 whole entry): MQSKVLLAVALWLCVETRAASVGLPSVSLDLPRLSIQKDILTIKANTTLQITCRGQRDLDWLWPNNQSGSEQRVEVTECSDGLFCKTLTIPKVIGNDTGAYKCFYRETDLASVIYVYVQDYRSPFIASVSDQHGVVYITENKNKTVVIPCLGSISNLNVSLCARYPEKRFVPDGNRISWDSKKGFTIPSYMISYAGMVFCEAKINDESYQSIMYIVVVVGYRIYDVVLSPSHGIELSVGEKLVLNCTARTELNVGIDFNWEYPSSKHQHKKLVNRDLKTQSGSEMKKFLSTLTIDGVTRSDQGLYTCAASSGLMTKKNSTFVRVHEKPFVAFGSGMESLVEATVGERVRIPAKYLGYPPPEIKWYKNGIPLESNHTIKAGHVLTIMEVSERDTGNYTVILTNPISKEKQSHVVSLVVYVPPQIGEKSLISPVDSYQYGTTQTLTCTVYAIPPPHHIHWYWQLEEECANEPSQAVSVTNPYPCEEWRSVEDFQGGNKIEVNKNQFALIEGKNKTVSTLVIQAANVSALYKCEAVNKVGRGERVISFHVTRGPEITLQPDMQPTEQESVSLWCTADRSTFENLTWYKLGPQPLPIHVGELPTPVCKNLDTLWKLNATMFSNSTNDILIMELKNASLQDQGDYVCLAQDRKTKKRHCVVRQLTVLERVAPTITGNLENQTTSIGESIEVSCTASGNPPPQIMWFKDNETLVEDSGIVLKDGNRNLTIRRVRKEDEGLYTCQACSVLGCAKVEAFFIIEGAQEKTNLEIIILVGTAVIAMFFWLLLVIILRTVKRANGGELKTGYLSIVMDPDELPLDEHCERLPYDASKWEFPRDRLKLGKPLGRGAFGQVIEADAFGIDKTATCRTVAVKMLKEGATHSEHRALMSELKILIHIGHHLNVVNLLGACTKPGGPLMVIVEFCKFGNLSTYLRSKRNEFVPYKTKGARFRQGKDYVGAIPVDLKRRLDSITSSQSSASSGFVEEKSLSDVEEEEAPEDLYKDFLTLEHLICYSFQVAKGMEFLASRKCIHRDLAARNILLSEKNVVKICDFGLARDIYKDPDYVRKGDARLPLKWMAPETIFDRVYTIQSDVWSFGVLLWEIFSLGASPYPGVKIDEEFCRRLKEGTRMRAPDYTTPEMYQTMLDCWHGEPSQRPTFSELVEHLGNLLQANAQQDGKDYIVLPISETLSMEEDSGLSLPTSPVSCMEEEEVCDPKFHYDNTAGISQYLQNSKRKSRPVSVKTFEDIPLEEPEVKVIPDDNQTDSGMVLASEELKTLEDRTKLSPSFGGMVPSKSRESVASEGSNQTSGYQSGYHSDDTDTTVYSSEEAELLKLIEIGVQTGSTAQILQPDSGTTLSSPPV
In experiment [4] the target is T4, Epidermal growth factor receptor (Homo sapiens, UniProt P00533). As to the kind of experiment: Inhibition of EGFR after 30 mins by chemiluminescence ELISA.
T4 sequence (P00533 whole entry): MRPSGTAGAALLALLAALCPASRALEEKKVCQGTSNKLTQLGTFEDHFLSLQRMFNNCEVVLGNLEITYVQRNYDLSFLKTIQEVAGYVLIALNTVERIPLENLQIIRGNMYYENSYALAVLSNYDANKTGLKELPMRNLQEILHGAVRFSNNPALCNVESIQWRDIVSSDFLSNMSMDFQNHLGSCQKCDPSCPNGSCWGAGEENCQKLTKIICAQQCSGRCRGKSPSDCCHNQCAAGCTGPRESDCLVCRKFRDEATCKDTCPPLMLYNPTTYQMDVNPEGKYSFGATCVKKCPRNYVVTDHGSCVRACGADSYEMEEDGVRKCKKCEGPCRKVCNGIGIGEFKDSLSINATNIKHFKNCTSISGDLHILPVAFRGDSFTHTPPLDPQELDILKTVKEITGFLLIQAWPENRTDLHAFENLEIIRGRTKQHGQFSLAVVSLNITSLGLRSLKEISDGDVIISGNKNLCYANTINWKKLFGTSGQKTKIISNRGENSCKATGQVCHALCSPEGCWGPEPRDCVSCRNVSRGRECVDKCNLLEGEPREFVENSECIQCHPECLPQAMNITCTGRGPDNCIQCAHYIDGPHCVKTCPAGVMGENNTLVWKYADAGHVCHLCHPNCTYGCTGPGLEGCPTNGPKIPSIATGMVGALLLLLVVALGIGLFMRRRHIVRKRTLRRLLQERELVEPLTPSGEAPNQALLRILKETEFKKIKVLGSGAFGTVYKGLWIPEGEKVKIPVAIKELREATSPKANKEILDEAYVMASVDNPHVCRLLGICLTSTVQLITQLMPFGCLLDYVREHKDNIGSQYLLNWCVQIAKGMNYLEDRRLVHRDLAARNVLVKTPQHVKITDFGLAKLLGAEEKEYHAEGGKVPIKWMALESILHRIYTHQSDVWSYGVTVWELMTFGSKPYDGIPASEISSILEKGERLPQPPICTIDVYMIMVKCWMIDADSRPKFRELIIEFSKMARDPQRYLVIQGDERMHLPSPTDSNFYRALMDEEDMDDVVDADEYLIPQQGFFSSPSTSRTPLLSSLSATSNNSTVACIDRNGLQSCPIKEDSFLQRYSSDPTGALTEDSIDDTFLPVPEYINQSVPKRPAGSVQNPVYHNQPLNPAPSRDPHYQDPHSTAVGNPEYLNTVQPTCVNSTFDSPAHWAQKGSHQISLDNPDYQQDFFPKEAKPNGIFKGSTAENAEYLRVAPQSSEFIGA
Experiment [5] concerns the target T1, Insulin-like growth factor 1 receptor. As to the kind of experiment: Noncompetitive inhibition of IGF1R after 30 mins by chemiluminescence ELISA in presence of 50 uM ATP.
In experiment [6] the test system is HT-29. As to the kind of experiment: Cytotoxicity against human HT-29 cells after 24 hrs by WST1 assay. In kind it is functional, cell-based. The following applies: HT-29, 24 h. For orientation: Formazan colour is commonly taken as a measure of viable cells.
Experiment [7] relates to HUVEC. As to the kind of experiment: Cytotoxicity against HUVEC after 24 hrs by WST1 assay. In kind it is cell-based. The following applies: Homo sapiens.
For experiment [8], the system named is HT-29. As to the kind of experiment: Antiproliferative activity against human HT-29 cells assessed as BrdU incorporation into mitotic active cells after 24 hrs by luminometry. Format: functional, cell-based. The following applies: HT-29, 24 h. On the technique in general: Dividing cells build labelled thymidine or BrdU into new DNA.
In experiment [9] the target is T1, Insulin-like growth factor 1 receptor. As to the kind of experiment: Noncompetitive inhibition of IGF1R after 30 mins by chemiluminescence ELISA in presence of 25 uM ATP.
Experiment [10] concerns the target T4, Epidermal growth factor receptor.
Description: Noncompetitive inhibition of EGFR after 30 mins by chemiluminescence ELISA in presence of 50 uM ATP
Experiment [11] in a line: Antiproliferative activity against HEPM cells assessed as BrdU incorporation into mitotic active cells after 24 hrs by luminometry. Format: cell-based. As to conditions: Homo sapiens.
Experiment [12] deals with T2, Vascular endothelial growth factor receptor 3. As to the kind of experiment: Noncompetitive inhibition of VEGFR3 after 30 mins by chemiluminescence ELISA in presence of 50 uM ATP.
Experiment [13] is described as follows: Cytotoxicity against HEPM cells after 24 hrs by WST1 assay. As to conditions: Homo sapiens. In kind it is cell-based.
Experiment [14] addresses T3, Vascular endothelial growth factor receptor 2. As to the kind of experiment: Noncompetitive inhibition of VEGFR2 after 30 mins by chemiluminescence ELISA in presence of 50 uM ATP.
Experiment [15] has the same target. As to the kind of experiment: Noncompetitive inhibition of VEGFR2 after 30 mins by chemiluminescence ELISA in presence of 25 uM ATP.
For experiment [16], the target named is T2, Vascular endothelial growth factor receptor 3. As to the kind of experiment: Noncompetitive inhibition of VEGFR3 after 30 mins by chemiluminescence ELISA in presence of 250 uM ATP.
Experiment [17] concerns the target T3, Vascular endothelial growth factor receptor 2. As to the kind of experiment: Noncompetitive inhibition of VEGFR2 after 30 mins by chemiluminescence ELISA in presence of 250 uM ATP.
In experiment [18] the target is T2, Vascular endothelial growth factor receptor 3. As to the kind of experiment: Noncompetitive inhibition of VEGFR3 after 30 mins by chemiluminescence ELISA in presence of 25 uM ATP.
For experiment [19], the target named is T1, Insulin-like growth factor 1 receptor. As to the kind of experiment: Noncompetitive inhibition of IGF1R after 30 mins by chemiluminescence ELISA in presence of 250 uM ATP.
Experiment [20] has as its target T4, Epidermal growth factor receptor. This is another data set of the same source.
Description: Noncompetitive inhibition of EGFR after 30 mins by chemiluminescence ELISA in presence of 25 uM ATP
Experiment [21] has the same target. This is another data set of the same source.
Description: Noncompetitive inhibition of EGFR after 30 mins by chemiluminescence ELISA in presence of 250 uM ATP
Experiment [22] relates to MCF7. As to the kind of experiment: Antiproliferative activity against human MCF7 cells assessed as BrdU incorporation into mitotic active cells after 24 hrs by luminometry. In kind it is functional, cell-based. The following applies: MCF7, 24 h.
The subject of experiment [23] is MCF7. As to the kind of experiment: Cytotoxicity against human MCF7 cells after 24 hrs by WST1 assay. In kind it is functional, cell-based. As to conditions: MCF7, 24 h.
Experiment [24] concerns HUVEC. As to the kind of experiment: Antiproliferative activity against HUVEC assessed as BrdU incorporation into mitotic active cells after 24 hrs by luminometry. Format: cell-based. As to conditions: Homo sapiens.

Counter-ions that a name gives are not always drawn.

A word on the IC50: it is the concentration needed to halve the response being measured.

T2 sequence (P35916 whole entry): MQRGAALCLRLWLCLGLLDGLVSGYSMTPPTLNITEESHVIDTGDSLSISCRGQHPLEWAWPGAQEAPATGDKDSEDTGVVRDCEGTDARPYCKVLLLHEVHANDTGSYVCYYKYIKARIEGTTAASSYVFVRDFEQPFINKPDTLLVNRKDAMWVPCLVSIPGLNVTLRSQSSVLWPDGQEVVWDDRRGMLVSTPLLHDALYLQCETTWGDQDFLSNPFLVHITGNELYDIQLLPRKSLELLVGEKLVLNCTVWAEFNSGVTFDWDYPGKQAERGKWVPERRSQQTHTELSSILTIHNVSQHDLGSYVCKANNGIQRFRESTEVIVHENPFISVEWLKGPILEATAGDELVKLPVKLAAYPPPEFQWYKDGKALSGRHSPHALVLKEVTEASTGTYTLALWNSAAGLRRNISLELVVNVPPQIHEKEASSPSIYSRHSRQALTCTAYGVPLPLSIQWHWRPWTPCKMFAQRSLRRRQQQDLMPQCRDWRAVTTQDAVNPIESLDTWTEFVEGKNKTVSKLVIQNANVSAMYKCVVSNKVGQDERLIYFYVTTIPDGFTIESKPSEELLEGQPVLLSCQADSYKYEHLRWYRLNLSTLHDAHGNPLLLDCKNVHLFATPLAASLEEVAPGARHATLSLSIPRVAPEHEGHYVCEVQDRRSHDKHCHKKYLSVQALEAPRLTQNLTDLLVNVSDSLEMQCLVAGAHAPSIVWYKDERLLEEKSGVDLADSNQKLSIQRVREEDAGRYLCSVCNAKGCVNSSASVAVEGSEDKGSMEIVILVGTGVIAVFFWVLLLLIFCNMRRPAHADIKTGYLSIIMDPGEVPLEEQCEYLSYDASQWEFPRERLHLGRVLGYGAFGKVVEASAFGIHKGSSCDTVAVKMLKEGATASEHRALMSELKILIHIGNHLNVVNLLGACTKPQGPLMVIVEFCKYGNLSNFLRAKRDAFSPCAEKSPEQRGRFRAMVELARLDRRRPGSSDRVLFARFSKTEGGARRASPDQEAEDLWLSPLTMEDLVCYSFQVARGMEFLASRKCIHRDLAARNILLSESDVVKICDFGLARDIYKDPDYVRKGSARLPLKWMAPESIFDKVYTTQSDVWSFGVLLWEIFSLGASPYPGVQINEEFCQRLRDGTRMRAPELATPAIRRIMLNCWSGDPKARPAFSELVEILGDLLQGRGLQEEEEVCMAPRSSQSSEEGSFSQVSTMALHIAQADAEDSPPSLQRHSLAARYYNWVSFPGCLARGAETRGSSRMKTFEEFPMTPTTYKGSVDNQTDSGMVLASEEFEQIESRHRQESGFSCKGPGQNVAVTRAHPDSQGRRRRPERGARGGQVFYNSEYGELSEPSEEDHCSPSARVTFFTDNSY

Take `COc1ccc(CCOc2ccc3c(c2)c(CCN)cn3CCCCCc2ccc(SC)cc2)cc1`: the IC50 in [1] is 980 nM; in experiment [2], 1310 nM; in [3] it was 1450 nM; in experiment [4], 2450 nM.

Take `COc1ccc(CCCCCn2cc(CCN)c3cc(OCCc4ccc(O)cc4)ccc32)cc1`: the IC50 in experiment [1] came out at 3210 nM; in experiment [2], 2050 nM; in [3] it was 2170 nM; in experiment [4], 4400 nM.

In the case of `CSc1ccc(CCCCCn2cc(CCNC(=O)OC(C)(C)C)c3cc(OCCc4ccc(O)cc4)ccc32)cc1`, the IC50 in [1], in experiment [2], in experiment [3] and in experiment [4] was above 50000 nM each time.

`NCCc1cn(Cc2ccc(-c3cccc(C(F)(F)F)c3)cc2)c2ccc(OCCc3ccc(O)cc3)cc12`: the IC50 in experiment [5] is 1060 nM; in the experiment with HT-29 [6], 7950 nM; in the experiment with HUVEC [7], 6320 nM; in the experiment on HT-29 [8] it was 4380 nM; in experiment [1], 1070 nM; in experiment [9], 1070 nM. Besides, the IC50 in experiment [10] was found to be 1120 nM; in [11], 2740 nM; in [12], 2980 nM; in experiment [2], 3010 nM; in experiment [13] it was 6640 nM; in [14], 1480 nM. For the same compound, the IC50 in experiment [15] came out at 1560 nM; in experiment [3], 1560 nM; in [16] it was 3080 nM; in [17], 1500 nM; in experiment [18], 3010 nM; in experiment [19], 1020 nM. Besides, the IC50 in [20] is 1110 nM; in experiment [21] it was 1060 nM; in the experiment on MCF7 [22] it was 3570 nM; in the experiment with MCF7 [23] it was 3340 nM; in [4] it was 1110 nM; in the experiment on HUVEC [24], 1980 nM.

For the compound `NC1CCc2[nH]c3ccc(OCCc4ccc(O)cc4)cc3c2C1` (stereo unspecified), the IC50 was 10600 nM in experiment [1], 34600 nM in experiment [2], 27100 nM in [3] and 15100 nM in experiment [4].

In the case of `NC1CCc2c(c3cc(OCCc4ccc(O)cc4)ccc3n2CCCCCc2ccccn2)C1` (stereo unspecified), the IC50 in [1] came to 2800 nM; in experiment [3], 2120 nM.

As for `NC1CCc2c(c3cc(OCCc4ccc(O)cc4)ccc3n2CCCCCc2ccc(C(F)(F)F)cc2)C1` (stereo unspecified), the half-maximal inhibitory concentration (IC50) in experiment [1] was 5150 nM; in experiment [2], 2270 nM; in experiment [3] it was 2180 nM; in experiment [4] it was 2750 nM.

Regarding `CN(C)c1ccc(CCCCCn2c3c(c4cc(OCCc5ccc(O)cc5)ccc42)CC(N)CC3)cc1` (stereo unspecified), the values for the IC50 in experiment [2] and in experiment [4] were 1660 nM and 1910 nM, respectively.

With `NCCc1c[nH]c2ccc(O)cc12` [SEROTONIN HYDROCHLORIDE], the IC50 in experiment [1], in experiment [2], in experiment [3] and in experiment [4] was above 50000 nM in each case.

For the compound `COc1ccc(CCCCCn2c3c(c4cc(OCCc5ccc(O)cc5)ccc42)CC(N)CC3)cc1` (stereo unspecified), the IC50 in [1] turned out to be 2860 nM; in experiment [2], 1810 nM; in [3] it was 940 nM; in [4], 1370 nM.

As for `CSc1ccc(CCCCCn2cc(CCN)c3cc(OCCc4ccc(O)cc4)ccc32)cc1`, the IC50 was found to be 2250 nM in [1], 2530 nM in [2], 1220 nM in [3] and 1920 nM in experiment [4].

For `COCCc1ccc(O)cc1`, the IC50 in [1], in experiment [2], in experiment [3] and in [4] was above 50000 nM throughout.

For the compound `NC1CCc2c(c3cc(OCCc4ccc(O)cc4)ccc3n2CCCc2ccccc2)C1` (stereo unspecified), the IC50 in [1] was 1330 nM; in [2], 2850 nM; in [3], 2070 nM; in [4], 2500 nM.

In the case of `NC1CCc2c(c3cc(OCCc4ccc(O)cc4)ccc3n2CCCCCc2ccccc2)C1` (stereo unspecified), the IC50 in experiment [5] turned out to be 990 nM; with HT-29 [6], 11000 nM; with HUVEC [7], 5040 nM; with HT-29 [8], 3810 nM; in experiment [1], 930 nM; in experiment [9], 930 nM. Besides, the IC50 in experiment [10] stood at 980 nM; in experiment [11] it was 2250 nM; in experiment [12], 2110 nM; in experiment [2], 2170 nM; in [13], 7760 nM; in experiment [14] it was 1090 nM. For the same compound, the IC50 is 1060 nM in experiment [15]; 1060 nM in experiment [3]; 2190 nM in [16]; 1040 nM in experiment [17]; 2170 nM in [18]; 1220 nM in experiment [19]. The IC50 in experiment [20] stood at 1010 nM; in experiment [21], 1000 nM; in the experiment on MCF7 [22] it was 3850 nM; in the experiment with MCF7 [23] it was 4790 nM; in experiment [4] it was 1010 nM; in the experiment with HUVEC [24], 1380 nM.

In the case of `COc1ccc(-c2ccc(Cn3cc(CCN)c4cc(OCCc5ccc(O)cc5)ccc43)cc2)cc1`, the IC50 in the experiment with HT-29 [6] was 8500 nM; in the experiment on HUVEC [7], 3450 nM; in the experiment with HT-29 [8], 4860 nM; in experiment [1], 1790 nM; in experiment [11], 2530 nM; in experiment [2], 960 nM. In addition, the IC50 in [13] is 5700 nM; in [3] it was 1010 nM; in the experiment with MCF7 [22], 4790 nM; in the experiment on MCF7 [23] it was 4930 nM; in [4] it was 1250 nM; with HUVEC [24], 750 nM.

Turning to `NCCc1cn(Cc2ccc(-c3ccccc3)cc2)c2ccc(OCCc3ccc(O)cc3)cc12`, the IC50 in experiment [1] stood at 2360 nM; in experiment [2], 4070 nM; in [3] it was 1170 nM; in experiment [4], 1300 nM.

For the compound `NCCc1c[nH]c2ccc(OCCc3ccc(O)cc3)cc12`, the IC50 stood at 1780 nM in experiment [1], 2640 nM in experiment [2], 2030 nM in experiment [3] and 2070 nM in [4].

As for `NCCc1cn(CCCCCc2ccccc2)c2ccc(OCCc3ccc(O)cc3)cc12`, the IC50 was 2960 nM in [1], 2680 nM in [2], 2830 nM in [3] and 1630 nM in [4].

(Values after ChEMBL document CHEMBL1157833, “Serotonin derivatives as a new class of non-ATP-competitive receptor tyrosine kinase inhibitors” (Bioorg Med Chem, 2010).)
